Results: ChEMBL document CHEMBL3886657, “Imidazopyridin-2-one derivatives” (2016)

Molecular target: Metabotropic glutamate receptor 2 (Homo sapiens, UniProt Q14416)
Experiment: [35S]-GTPγS Assay: The stimulation of [35S]-GTPγS binding is a common functional assay to monitor Gαi-coupled receptor in native and recombinant receptor membrane preparation. Membrane from cells stably expressing hmGlu2 CHO-K1 (50 μg) are incubated in a 96 well plate for 1 hour in the presence of GTPγS35 (0.05 nM), GDP (5 μM) and compounds. The reaction is stopped by rapid filtration over Unifilter GF/B plate (Packard, Bioscience, Meriden Conn.) using a 96-well cell harvester (Brandel Gaithersburg, Md.). The filter plates are counted using Topcount counter (Packard, Bioscience, Meriden Conn., USA). When compounds are evaluated as potentiators they are tested in the presence of glutamate (1 μM).

Chain of Metabotropic glutamate receptor 2 (Q14416 whole entry): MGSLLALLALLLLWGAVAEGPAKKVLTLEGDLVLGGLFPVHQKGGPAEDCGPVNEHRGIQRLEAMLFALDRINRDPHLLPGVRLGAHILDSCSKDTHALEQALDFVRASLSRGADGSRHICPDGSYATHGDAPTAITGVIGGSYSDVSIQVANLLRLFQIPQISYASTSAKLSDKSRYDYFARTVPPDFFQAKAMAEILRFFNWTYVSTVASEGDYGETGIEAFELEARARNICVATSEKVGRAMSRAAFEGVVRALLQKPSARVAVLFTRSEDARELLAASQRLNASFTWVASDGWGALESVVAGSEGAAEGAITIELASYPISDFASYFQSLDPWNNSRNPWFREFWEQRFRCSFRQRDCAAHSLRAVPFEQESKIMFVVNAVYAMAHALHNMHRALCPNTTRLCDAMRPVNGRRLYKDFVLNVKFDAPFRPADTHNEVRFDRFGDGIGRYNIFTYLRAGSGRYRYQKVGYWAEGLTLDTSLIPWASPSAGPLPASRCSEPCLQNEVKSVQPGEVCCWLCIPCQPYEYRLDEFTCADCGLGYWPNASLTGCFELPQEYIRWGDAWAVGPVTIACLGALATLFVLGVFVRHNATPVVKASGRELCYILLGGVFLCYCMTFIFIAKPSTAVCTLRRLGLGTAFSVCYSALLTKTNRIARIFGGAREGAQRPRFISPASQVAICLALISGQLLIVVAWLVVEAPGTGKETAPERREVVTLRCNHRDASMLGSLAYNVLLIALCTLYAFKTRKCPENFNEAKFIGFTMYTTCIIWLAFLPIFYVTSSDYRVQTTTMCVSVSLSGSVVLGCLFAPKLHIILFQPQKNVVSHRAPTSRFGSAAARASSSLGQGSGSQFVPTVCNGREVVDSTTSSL

Row | SMILES | EC50
1 | Cn1c(=O)n(CC(C)(C)C)c2ccc(C3=CC4CCC3CN4C(=O)C3CC3)nc21 (configuration not stated) | 215 nM
2 | Cn1c(=O)n(CC(C)(C)C)c2ccc(C3=CC4CN(C(=O)CO)CC4C3)nc21 (configuration not stated) | 2820 nM
3 | Cn1c(=O)n(CC2CC2(F)F)c2ccc(C3=CC4CN(C(=O)c5ncco5)CC4C3)nc21 (configuration not stated) | 248 nM
4 | Cn1c(=O)n(CC(C)(C)C)c2ccc(C3=CC4CCC3CN4C(=O)Cn3cncn3)nc21 (configuration not stated) | 115 nM
5 | Cn1c(=O)n(CC(C)(C)C)c2ccc(C3=CC4CCC3CN4C(=O)c3cccnc3)nc21 (configuration not stated) | 299 nM

These reach a lower EC50. Values come first.

Row | EC50 | SMILES
6 | 88.6 nM | CN1c2nc(C3=CC4CN(C(=O)C(C)(C)O)CC4C3)ccc2N(CC2CC2(F)F)S1(=O)=O (configuration not stated)
7 | 69.3 nM | Cn1c(=O)n(CC(C)(C)C)c2ccc(C3=CC4CCC3CN4C(=O)c3csnn3)nc21 (configuration not stated)
8 | 54.7 nM | Cn1c(=O)n(CC(C)(C)C)c2ccc(C3=CC4CN(C(=O)c5ncco5)CC4C3)nc21 (configuration not stated)
9 | 51.4 nM | Cn1c(=O)n(CC(C)(C)C)c2ccc(C3=CC4CN(C(=O)C5(O)CCC5)CC4C3)nc21 (configuration not stated)
10 | 40.6 nM | CC1C(c2ccc3c(n2)N(C)S(=O)(=O)N3CC2CC2(F)F)C1C(C)(C)O (configuration not stated)
11 | 26.6 nM | Cn1c(=O)n(CC2CC2(F)F)c2ccc(C3=CC4CCC3CN4C(=O)c3ccon3)nc21 (configuration not stated)
12 | 17.9 nM | Cn1c(=O)n(CC(C)(C)C)c2ccc(C3=CC4CCC3CN4C(=O)c3ncco3)nc21 (configuration not stated)
